Laboratory results as given in the NIST ThermoML archive (doi:10.1021/je7002918).

Assay: xn = mol fraction of the nth substance listed
Details: 298.15 K, 101 kPa, Liquid

CC(C)(C)Cl [2-chloro-2-methylpropane] + Cc1ccc(C)cc1
Details | excess molar volume [m3/mol]
x1 = 0.0816 | -1.02e-07
x1 = 0.1212 | -1.48e-07
x1 = 0.1874 | -2.12e-07
x1 = 0.2585 | -2.68e-07
x1 = 0.308 | -3.04e-07
x1 = 0.3746 | -3.32e-07
x1 = 0.4539 | -3.56e-07
x1 = 0.5117 | -3.57e-07
x1 = 0.5918 | -3.44e-07
x1 = 0.6635 | -3.18e-07
x1 = 0.7516 | -2.62e-07
x1 = 0.8683 | -1.56e-07
x1 = 0.9321 | -8.2e-08

CC(C)(C)Cl [2-chloro-2-methylpropane] + Cc1cccc(C)c1
Details | excess molar volume [m3/mol]
x1 = 0.0875 | -8.4e-08
x1 = 0.1216 | -1.16e-07
x1 = 0.1973 | -1.76e-07
x1 = 0.2724 | -2.22e-07
x1 = 0.3516 | -2.58e-07
x1 = 0.4307 | -2.84e-07
x1 = 0.4832 | -2.9e-07
x1 = 0.5214 | -2.94e-07
x1 = 0.5768 | -2.86e-07
x1 = 0.658 | -2.66e-07
x1 = 0.7305 | -2.38e-07
x1 = 0.8543 | -1.52e-07
x1 = 0.9112 | -9.8e-08

CC(C)(C)Cl [2-chloro-2-methylpropane] + Cc1ccccc1
Details | excess molar volume [m3/mol]
x1 = 0.0932 | -1.14e-07
x1 = 0.1243 | -1.48e-07
x1 = 0.1832 | -2.11e-07
x1 = 0.2556 | -2.75e-07
x1 = 0.3342 | -3.28e-07
x1 = 0.3895 | -3.54e-07
x1 = 0.428 | -3.68e-07
x1 = 0.4952 | -3.81e-07
x1 = 0.5467 | -3.76e-07
x1 = 0.5985 | -3.64e-07
x1 = 0.6356 | -3.53e-07
x1 = 0.6889 | -3.2e-07
x1 = 0.8102 | -2.26e-07
x1 = 0.8961 | -1.3e-07
x1 = 0.9405 | -7.4e-08

CC(C)(C)Cl [2-chloro-2-methylpropane] + Cc1ccccc1C
Details | excess molar volume [m3/mol]
x1 = 0.0698 | -1.32e-07
x1 = 0.1023 | -1.86e-07
x1 = 0.1642 | -2.64e-07
x1 = 0.209 | -3.06e-07
x1 = 0.2653 | -3.54e-07
x1 = 0.3321 | -3.88e-07
x1 = 0.4187 | -4.22e-07
x1 = 0.4979 | -4.32e-07
x1 = 0.5984 | -4.28e-07
x1 = 0.6627 | -4.16e-07
x1 = 0.7452 | -3.72e-07
x1 = 0.8056 | -3.22e-07
x1 = 0.9113 | -1.88e-07
x1 = 0.9453 | -1.24e-07

CC(C)(C)Cl [2-chloro-2-methylpropane] + c1ccccc1
Details | excess molar volume [m3/mol]
x1 = 0.0821 | -9.4e-08
x1 = 0.1115 | -1.22e-07
x1 = 0.2016 | -1.8e-07
x1 = 0.2989 | -2.31e-07
x1 = 0.314 | -2.4e-07
x1 = 0.3587 | -2.46e-07
x1 = 0.3959 | -2.52e-07
x1 = 0.446 | -2.58e-07
x1 = 0.5551 | -2.45e-07
x1 = 0.6721 | -2.06e-07
x1 = 0.7422 | -1.74e-07
x1 = 0.828 | -1.28e-07
x1 = 0.914 | -6.6e-08

CCC(C)Cl (stereo unspecified) [2-chlorobutane] + Cc1ccc(C)cc1
Details | excess molar volume [m3/mol]
x1 = 0.0881 | -6.5e-08
x1 = 0.163 | -1.26e-07
x1 = 0.3481 | -2.26e-07
x1 = 0.4012 | -2.48e-07
x1 = 0.4742 | -2.54e-07
x1 = 0.5001 | -2.58e-07
x1 = 0.5534 | -2.52e-07
x1 = 0.6264 | -2.34e-07
x1 = 0.6784 | -2.06e-07
x1 = 0.738 | -1.75e-07
x1 = 0.7871 | -1.46e-07
x1 = 0.8758 | -8.6e-08
x1 = 0.9179 | -5.2e-08

CCC(C)Cl (stereo unspecified) [2-chlorobutane] + Cc1cccc(C)c1
Details | excess molar volume [m3/mol]
x1 = 0.0694 | -5.4e-08
x1 = 0.1004 | -7.8e-08
x1 = 0.139 | -9.4e-08
x1 = 0.2117 | -1.22e-07
x1 = 0.2712 | -1.43e-07
x1 = 0.3438 | -1.5e-07
x1 = 0.4061 | -1.56e-07
x1 = 0.4884 | -1.62e-07
x1 = 0.5442 | -1.62e-07
x1 = 0.601 | -1.56e-07
x1 = 0.7408 | -1.34e-07
x1 = 0.8431 | -1.06e-07
x1 = 0.9249 | -6.2e-08

CCC(C)Cl (stereo unspecified) [2-chlorobutane] + Cc1ccccc1
Details | excess molar volume [m3/mol]
x1 = 0.0856 | -6.6e-08
x1 = 0.1276 | -9.6e-08
x1 = 0.2495 | -1.73e-07
x1 = 0.3441 | -2.12e-07
x1 = 0.4723 | -2.32e-07
x1 = 0.5018 | -2.34e-07
x1 = 0.5569 | -2.32e-07
x1 = 0.6025 | -2.21e-07
x1 = 0.6712 | -2.06e-07
x1 = 0.7991 | -1.46e-07
x1 = 0.9046 | -7.2e-08
x1 = 0.9432 | -4.4e-08

CCC(C)Cl (stereo unspecified) [2-chlorobutane] + Cc1ccccc1C
Details | excess molar volume [m3/mol]
x1 = 0.0784 | -6.6e-08
x1 = 0.121 | -1.12e-07
x1 = 0.1509 | -1.34e-07
x1 = 0.166 | -1.47e-07
x1 = 0.2243 | -2.01e-07
x1 = 0.314 | -2.62e-07
x1 = 0.3921 | -2.92e-07
x1 = 0.4879 | -3.1e-07
x1 = 0.5552 | -2.95e-07
x1 = 0.669 | -2.46e-07
x1 = 0.7282 | -2.12e-07
x1 = 0.8091 | -1.42e-07
x1 = 0.8816 | -8.6e-08
x1 = 0.9052 | -6.4e-08

CCC(C)Cl (stereo unspecified) [2-chlorobutane] + c1ccccc1
Details | excess molar volume [m3/mol]
x1 = 0.0696 | 1e-09
x1 = 0.084 | 2e-09
x1 = 0.1122 | 1e-09
x1 = 0.1524 | 2e-09
x1 = 0.1983 | -2e-09
x1 = 0.2184 | -5e-09
x1 = 0.2744 | -5e-09
x1 = 0.3652 | -1.8e-08
x1 = 0.4665 | -2.6e-08
x1 = 0.5692 | -4.4e-08
x1 = 0.6062 | -4.8e-08
x1 = 0.752 | -5.4e-08
x1 = 0.8041 | -4.6e-08
x1 = 0.8573 | -4e-08
x1 = 0.9032 | -3.5e-08
x1 = 0.9405 | -2.5e-08
